Measurements reported in the kinase profiling compilation of Christmann-Franck et al. (2016).

Key:
PIK3CG (human) = PIK3CG (human) (UniProt P48736); assay: ADP detection assay-Luminescence
CHKA (human) = CHKA (human) (UniProt P35790); assay: ADP detection assay-Luminescence; settings: ATP 1 µM
SPHK2 (human) = SPHK2 (human) (UniProt Q9NRA0); assay: ADP detection assay-Luminescence; settings: ATP 1 µM
DGKB (human) = DGKB (human) (UniProt Q9Y6T7); assay: ADP detection assay-Luminescence
PIK3CA PIK3R1 (human) = PIK3CA PIK3R1 (human) (UniProt P27986+P42336); assay: ADP detection assay-Luminescence; settings: ATP 1000 µM
PIK3CB PIK3R1 (human) = PIK3CB PIK3R1 (human) (UniProt P27986+P42338); assay: ADP detection assay-Luminescence; settings: ATP 1000 µM
SPHK1 (human) = SPHK1 (human) (UniProt Q9NYA1); assay: ADP detection assay-Luminescence; settings: ATP 10 µM
Sequence of SPHK1 (human) (Q9NYA1 whole entry, looked up): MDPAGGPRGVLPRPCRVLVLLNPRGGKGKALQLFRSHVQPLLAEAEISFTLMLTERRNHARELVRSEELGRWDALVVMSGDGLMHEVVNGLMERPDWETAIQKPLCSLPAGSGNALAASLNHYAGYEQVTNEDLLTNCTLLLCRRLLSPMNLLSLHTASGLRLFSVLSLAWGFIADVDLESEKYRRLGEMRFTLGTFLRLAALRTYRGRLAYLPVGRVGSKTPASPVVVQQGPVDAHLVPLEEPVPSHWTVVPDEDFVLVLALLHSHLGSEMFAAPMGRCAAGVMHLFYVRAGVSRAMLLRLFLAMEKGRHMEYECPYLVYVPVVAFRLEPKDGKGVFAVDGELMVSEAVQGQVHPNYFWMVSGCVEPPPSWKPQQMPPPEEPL

PIP4K2A (human) = PIP4K2A (human) (UniProt P48426); assay: ADP detection assay-Luminescence
Sequence of PIP4K2A (human) (P48426 whole entry, looked up): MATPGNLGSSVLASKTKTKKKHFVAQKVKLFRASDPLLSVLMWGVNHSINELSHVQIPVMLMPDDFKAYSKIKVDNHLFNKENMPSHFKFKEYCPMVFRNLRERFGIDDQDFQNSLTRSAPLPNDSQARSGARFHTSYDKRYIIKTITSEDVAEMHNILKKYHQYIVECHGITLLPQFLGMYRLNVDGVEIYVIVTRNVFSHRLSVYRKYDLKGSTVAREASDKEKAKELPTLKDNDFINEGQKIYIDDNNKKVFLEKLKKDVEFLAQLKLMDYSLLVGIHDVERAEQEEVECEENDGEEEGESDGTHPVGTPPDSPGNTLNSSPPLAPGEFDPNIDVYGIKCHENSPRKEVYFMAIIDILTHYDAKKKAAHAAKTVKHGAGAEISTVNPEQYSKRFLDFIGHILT

MAP2K1 (human) = MAP2K1 (human) (UniProt Q02750); assay: radiometric filter-binding kinase assay; settings: ATP 5 µM
Sequence of MAP2K1 (human) (Q02750 whole entry, looked up): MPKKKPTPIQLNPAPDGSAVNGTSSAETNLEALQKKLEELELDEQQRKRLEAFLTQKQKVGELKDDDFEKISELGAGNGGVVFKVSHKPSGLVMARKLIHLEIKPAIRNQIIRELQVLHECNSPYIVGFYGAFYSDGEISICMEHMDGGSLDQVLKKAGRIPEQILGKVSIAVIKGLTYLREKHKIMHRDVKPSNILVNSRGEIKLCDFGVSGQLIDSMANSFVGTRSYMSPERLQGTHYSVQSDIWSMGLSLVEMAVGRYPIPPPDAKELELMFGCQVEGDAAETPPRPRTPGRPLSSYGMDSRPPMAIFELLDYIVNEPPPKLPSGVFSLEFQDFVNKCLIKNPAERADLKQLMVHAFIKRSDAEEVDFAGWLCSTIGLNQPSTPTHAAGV

CaMK1 (human) = CaMK1 (human) (UniProt Q14012); assay: radiometric filter-binding kinase assay; settings: ATP 50 µM
Sequence of CaMK1 (human) (Q14012 whole entry, looked up): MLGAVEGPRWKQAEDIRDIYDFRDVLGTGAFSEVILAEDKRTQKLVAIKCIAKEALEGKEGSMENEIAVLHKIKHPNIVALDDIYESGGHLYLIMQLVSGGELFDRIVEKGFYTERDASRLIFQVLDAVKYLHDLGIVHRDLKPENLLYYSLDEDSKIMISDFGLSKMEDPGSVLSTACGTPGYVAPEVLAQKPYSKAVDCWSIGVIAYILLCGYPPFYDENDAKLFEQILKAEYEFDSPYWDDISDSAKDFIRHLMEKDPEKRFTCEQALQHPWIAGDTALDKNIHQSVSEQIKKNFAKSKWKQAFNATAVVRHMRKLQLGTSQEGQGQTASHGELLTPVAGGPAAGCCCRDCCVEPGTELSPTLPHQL

GSK3B (human) = GSK3B (human) (UniProt P49841); assay: radiometric filter-binding kinase assay; settings: ATP 5 µM
Sequence of GSK3B (human) (P49841 whole entry, looked up): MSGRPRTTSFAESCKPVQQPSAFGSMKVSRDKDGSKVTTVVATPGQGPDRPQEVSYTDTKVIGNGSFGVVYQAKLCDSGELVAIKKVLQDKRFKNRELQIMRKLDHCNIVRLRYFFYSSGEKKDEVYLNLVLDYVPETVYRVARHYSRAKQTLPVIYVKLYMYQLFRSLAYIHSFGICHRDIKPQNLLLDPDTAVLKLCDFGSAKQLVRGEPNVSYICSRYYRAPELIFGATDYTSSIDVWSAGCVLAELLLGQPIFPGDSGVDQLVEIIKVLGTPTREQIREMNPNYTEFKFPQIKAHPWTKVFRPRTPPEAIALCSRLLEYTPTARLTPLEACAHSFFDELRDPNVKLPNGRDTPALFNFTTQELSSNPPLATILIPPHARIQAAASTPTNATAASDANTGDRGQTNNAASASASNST

CSNK2A1 (human) = CSNK2A1 (human) (UniProt P68400); assay: radiometric filter-binding kinase assay; settings: ATP 5 µM
Sequence of CSNK2A1 (human) (P68400 whole entry, looked up): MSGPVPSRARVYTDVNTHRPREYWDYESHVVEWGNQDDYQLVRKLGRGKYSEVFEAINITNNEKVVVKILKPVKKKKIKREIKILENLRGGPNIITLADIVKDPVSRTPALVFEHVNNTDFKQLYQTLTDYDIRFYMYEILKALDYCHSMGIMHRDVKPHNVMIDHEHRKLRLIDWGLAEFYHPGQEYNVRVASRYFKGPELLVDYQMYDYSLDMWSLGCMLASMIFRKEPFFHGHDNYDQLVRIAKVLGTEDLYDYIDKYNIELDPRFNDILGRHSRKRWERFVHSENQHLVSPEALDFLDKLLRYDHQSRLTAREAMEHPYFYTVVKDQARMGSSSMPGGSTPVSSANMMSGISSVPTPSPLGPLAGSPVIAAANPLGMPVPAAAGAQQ

MAPK1 (human) = MAPK1 (human) (UniProt P28482); assay: radiometric filter-binding kinase assay
Sequence of MAPK1 (human) (P28482 whole entry, looked up): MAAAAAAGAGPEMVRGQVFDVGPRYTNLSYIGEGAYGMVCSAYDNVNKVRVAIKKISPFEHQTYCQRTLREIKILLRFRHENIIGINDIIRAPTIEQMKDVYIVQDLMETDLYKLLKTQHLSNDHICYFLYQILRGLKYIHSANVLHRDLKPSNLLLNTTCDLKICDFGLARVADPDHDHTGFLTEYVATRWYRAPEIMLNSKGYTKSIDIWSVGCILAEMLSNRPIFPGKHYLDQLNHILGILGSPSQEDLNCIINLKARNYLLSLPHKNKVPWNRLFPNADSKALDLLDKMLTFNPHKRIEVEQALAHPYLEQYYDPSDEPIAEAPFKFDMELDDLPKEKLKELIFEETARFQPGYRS

RPS6KA5 KD1 KD2 (human) = RPS6KA5 KD1 KD2 (human) (UniProt O75582); assay: radiometric filter-binding kinase assay; settings: ATP 100 µM
Sequence of RPS6KA5 KD1 KD2 (human) (O75582 whole entry, looked up): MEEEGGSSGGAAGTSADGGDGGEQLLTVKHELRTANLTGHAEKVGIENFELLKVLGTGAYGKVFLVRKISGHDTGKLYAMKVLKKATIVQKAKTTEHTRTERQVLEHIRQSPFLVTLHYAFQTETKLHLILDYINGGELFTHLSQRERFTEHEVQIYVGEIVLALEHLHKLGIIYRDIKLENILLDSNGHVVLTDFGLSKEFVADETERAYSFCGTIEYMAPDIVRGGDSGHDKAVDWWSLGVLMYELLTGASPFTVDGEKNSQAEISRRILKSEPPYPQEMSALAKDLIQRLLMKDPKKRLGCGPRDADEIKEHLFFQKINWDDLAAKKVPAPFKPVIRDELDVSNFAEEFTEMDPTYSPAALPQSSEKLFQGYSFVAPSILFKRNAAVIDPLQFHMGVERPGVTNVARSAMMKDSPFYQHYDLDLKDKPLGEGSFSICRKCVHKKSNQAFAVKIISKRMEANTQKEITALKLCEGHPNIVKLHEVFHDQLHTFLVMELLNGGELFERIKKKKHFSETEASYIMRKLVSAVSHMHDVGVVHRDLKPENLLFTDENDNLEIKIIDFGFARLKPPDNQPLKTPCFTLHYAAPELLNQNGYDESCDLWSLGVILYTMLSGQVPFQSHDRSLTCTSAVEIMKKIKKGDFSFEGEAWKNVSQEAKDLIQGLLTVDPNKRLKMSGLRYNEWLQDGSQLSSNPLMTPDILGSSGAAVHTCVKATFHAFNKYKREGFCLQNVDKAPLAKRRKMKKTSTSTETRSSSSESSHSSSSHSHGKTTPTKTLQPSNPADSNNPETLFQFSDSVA

MKNK2 (human) = MKNK2 (human) (UniProt Q9HBH9); assay: radiometric filter-binding kinase assay; settings: ATP 50 µM
Sequence of MKNK2 (human) (Q9HBH9 whole entry, looked up): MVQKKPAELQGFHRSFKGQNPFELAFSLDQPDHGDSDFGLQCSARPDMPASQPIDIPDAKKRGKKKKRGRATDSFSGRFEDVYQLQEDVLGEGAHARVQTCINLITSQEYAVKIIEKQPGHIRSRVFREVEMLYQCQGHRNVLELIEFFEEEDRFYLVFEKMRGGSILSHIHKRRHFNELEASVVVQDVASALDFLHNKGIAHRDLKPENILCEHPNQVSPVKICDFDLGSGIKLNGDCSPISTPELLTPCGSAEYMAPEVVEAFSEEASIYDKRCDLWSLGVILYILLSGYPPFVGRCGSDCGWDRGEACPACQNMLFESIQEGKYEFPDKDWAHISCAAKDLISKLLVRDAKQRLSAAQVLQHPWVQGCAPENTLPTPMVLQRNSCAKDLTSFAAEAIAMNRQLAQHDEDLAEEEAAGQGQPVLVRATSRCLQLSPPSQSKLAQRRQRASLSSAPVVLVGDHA

Sequence of SPHK2 (human) (Q9NRA0 whole entry, looked up): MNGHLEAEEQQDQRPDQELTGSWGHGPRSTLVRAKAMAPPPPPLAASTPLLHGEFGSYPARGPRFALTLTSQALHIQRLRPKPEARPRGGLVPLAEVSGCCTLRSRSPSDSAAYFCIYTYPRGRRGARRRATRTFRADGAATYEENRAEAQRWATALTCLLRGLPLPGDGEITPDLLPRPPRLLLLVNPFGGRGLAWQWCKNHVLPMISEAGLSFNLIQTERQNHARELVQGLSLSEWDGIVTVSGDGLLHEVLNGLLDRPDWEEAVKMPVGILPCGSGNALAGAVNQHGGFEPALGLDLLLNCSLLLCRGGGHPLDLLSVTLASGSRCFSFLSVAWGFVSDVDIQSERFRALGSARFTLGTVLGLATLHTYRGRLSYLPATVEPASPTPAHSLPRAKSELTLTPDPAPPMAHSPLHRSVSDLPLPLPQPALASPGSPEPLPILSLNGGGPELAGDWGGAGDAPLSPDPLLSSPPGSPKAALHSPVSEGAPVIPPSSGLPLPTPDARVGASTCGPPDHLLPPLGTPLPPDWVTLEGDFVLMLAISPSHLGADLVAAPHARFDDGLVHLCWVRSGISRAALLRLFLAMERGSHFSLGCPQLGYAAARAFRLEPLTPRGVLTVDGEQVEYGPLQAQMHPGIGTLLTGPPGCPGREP

With `CCc1cncnc1N1CCN(Cc2nc3cc(C(F)(F)F)ccc3[nH]2)CC1` the residual activity (PIK3CG (human); compound 1.0 µM) was 101%, the residual activity (PIK3CG (human); compound 10.0 µM) was 102% and the residual activity (CHKA (human); compound 1.0 µM) was 98%. The residual activity (CHKA (human); compound 10.0 µM) was 94%, the residual activity (SPHK2 (human); compound 1.0 µM) was 100% and the residual activity (SPHK2 (human); compound 10.0 µM) was 98%. The residual activity (DGKB (human); compound 1.0 µM) was 98%, the residual activity (DGKB (human); compound 10.0 µM) was 99% and the residual activity (PIK3CA PIK3R1 (human); compound 1.0 µM) was 107%. The residual activity (PIK3CA PIK3R1 (human); compound 10.0 µM) was 117%, the residual activity (PIK3CB PIK3R1 (human); compound 1.0 µM) was 103% and the residual activity (PIK3CB PIK3R1 (human); compound 10.0 µM) was 115%. It also gave a residual activity (SPHK1 (human); compound 1.0 µM) of 99%, a residual activity (SPHK1 (human); compound 10.0 µM) of 103% and a residual activity (PIP4K2A (human); compound 1.0 µM) of 101%. The residual activity (PIP4K2A (human); compound 10.0 µM) was 100%, the residual activity (MAP2K1 (human); compound 0.1 µM) was 117% and the residual activity (MAP2K1 (human); compound 1.0 µM) was 104%. The residual activity (MAP2K1 (human); compound 10.0 µM) was 96%, the residual activity (CaMK1 (human); compound 0.1 µM) was 106% and the residual activity (CaMK1 (human); compound 1.0 µM) was 94%. For the same compound, the residual activity (CaMK1 (human); compound 10.0 µM) was 78%, the residual activity (GSK3B (human); compound 0.1 µM) was 87% and the residual activity (GSK3B (human); compound 1.0 µM) was 96%. For the same compound, the residual activity (GSK3B (human); compound 10.0 µM) was 92%, the residual activity (CSNK2A1 (human); compound 0.1 µM) was 96% and the residual activity (CSNK2A1 (human); compound 1.0 µM) was 92%. The residual activity (CSNK2A1 (human); compound 10.0 µM) was 83%, the residual activity (MAPK1 (human); compound 0.1 µM, ATP 5 µM) was 88% and the residual activity (MAPK1 (human); compound 0.1 µM, ATP 50 µM) was 93%. It also gave a residual activity (MAPK1 (human); compound 1.0 µM, ATP 5 µM) of 96%, a residual activity (MAPK1 (human); compound 1.0 µM, ATP 50 µM) of 85% and a residual activity (MAPK1 (human); compound 10.0 µM, ATP 5 µM) of 77%. It also gave a residual activity (MAPK1 (human); compound 10.0 µM, ATP 50 µM) of 86%, an IC50 (RPS6KA5 KD1 KD2 (human)) of 950 nM and a residual activity (RPS6KA5 KD1 KD2 (human); compound 0.1 µM) of 80%. It also gave a residual activity (RPS6KA5 KD1 KD2 (human); compound 1.0 µM) of 42%, a residual activity (RPS6KA5 KD1 KD2 (human); compound 10.0 µM) of 14% and a residual activity (MKNK2 (human); compound 0.1 µM) of 92%. For the same compound, the residual activity (MKNK2 (human); compound 1.0 µM) was 93%.
